From patent US9884849B2, “Fluorinated benzofuranyl-pyrimidine derivatives containing a sulfoximine group” (Bayer Pharma Aktiengesellschaft, priority 2014, dated 2018)

Experiments:
[1] = biological target: T1, CDK2/CycE (Homo sapiens, UniProt P24941); assay: CDK2/CycE kinase assay (Method 2a, TR-FRET); type: biochemical; details: 10 μM ATP
T1 construct: GST; purchased ProQinase GmbH (Freiburg, Germany); host or cells: insect cells (Sf9)
From the text: 2a. CDK2/CycE kinase assay:
CDK2/CycE-Inhibitory Activity of Compounds of the Present Invention was Quantified Employing the CDK2/CycE TR-FRET Assay as Described in the Following Paragraphs:
Recombinant fusion proteins of GST and human CDK2 and of GST and human CycE, expressed in insect cells (Sf9) and purified by Glutathion-Sepharose affinity chromatography, were purchased from ProQinase GmbH (Freiburg, Germany). As substrate for the kinase reaction biotinylated peptide biotin-Ttds-YISPLKSPYKISEG (C-terminus in amid form) was used which can be purchased e.g. form the company JERINI Peptide Technologies (Berlin, Germany).
For the assay 50 nl of a 100 fold concentrated solution of the test compound in DMSO was pipetted into a black low volume 384 well microtiter plate (Greiner Bio-One, Frickenhausen, Germany), 2 yl of a solution of CDK2/CycE in aqueous assay buffer [50 mM Tris/HCl pH 8.0, 10 mM MgCl2, 1.0 mM dithiothreitol, 0.1 mM sodium ortho-vanadate, 0.01% (v/v) Nonidet-P40 (Sigma)] were added and the mixture was incubated for 15 min at 22° C. to allow pre-binding of the test compounds to the enzyme before the start of the kinase reaction. […] The concentration of CDK2/CycE was adjusted depending of the activity of the enzyme lot and was chosen appropriate to have the assay in the linear range, typical concentrations were in the range of 130 ng/mL. The reaction was stopped by the addition of 5 yl of a solution of TR-FRET detection reagents (0.2 μM streptavidine-XL665 [Cisbio Bioassays, Codolet, France] and 1 nM anti-RB(pSer807/pSer811)-antibody from BD Pharmingen [#558389] and 1.2 nM LANCE EU-W1024 labeled anti-mouse IgG antibody [Perkin-Elmer, product no. AD0077]) in an aqueous EDTA-solution (100 mM EDTA, 0.2% (w/v) bovine serum albumin in 100 mM HEPES/NaOH pH 7.0).
(§1) The resulting mixture was incubated 1 h at 22° C. to allow the formation of complex between the phosphorylated biotinylated peptide and the detection reagents. Subsequently the amount of phosphorylated substrate was evaluated by measurement of the resonance energy transfer from the Eu-chelate to the streptavidine-XL. Therefore, the fluorescence emissions at 620 nm and 665 nm after excitation at 350 nm was measured in a TR-FRET reader, e.g. a Rubystar (BMG Labtechnologies, Offenburg, Germany) or a Viewlux (Perkin-Elmer). The ratio of the emissions at 665 nm and at […] was taken as the measure for the amount of phosphorylated substrate. The data were normalised (enzyme reaction without inhibitor=0% inhibition, all other assay components but no enzyme=100% inhibition).

[2] = biological target: T2, CDK9/CycT1 (Homo sapiens, UniProt P50750); assay: CDK9/CycT1 high ATP kinase assay (Method 1b, TR-FRET); type: biochemical; details: 2 mM ATP; for Selectivity high ATP CDK9 over high ATP CDK2: IC50 (high ATP CDK2)/IC50 (high ATP CDK9): Methods 1b. and 2b.
T2 construct: Recombinant full-length His-tagged human CDK9 and CycT1; His; purchased Invitrogen PV4131; host or cells: insect cells
Protocol: 1b. CDK9/CycT1 High ATP Kinase Assay
CDK9/CycT1-Inhibitory Activity of Compounds of the Present Invention at a High ATP Concentration after Preincubation of Enzyme and Test Compounds was Quantified Employing the CDK9/CycT1 TR-FRET Assay as Described in the Following Paragraphs.
Recombinant full-length His-tagged human CDK9 and CycT1, expressed in insect cells and purified by Ni-NTA affinity chromatography, were purchase from Invitrogen (Cat. No PV4131). As substrate for the kinase reaction biotinylated peptide biotin-Ttds-YISPLKSPYKISEG (C-terminus in amid form) was used which can be purchased e.g. form the company JERINI peptide technologies (Berlin, Germany). For the assay 50 nl of a 100 fold concentrated solution of the test compound in DMSO was pipetted into a black low volume 384 well microtiter plate (Greiner Bio-One, Frickenhausen, Germany), 2 μl of a solution of CDK9/CycT1 in aqueous assay buffer [50 mM Tris/HCl pH 8.0, 10 mM MgCl2, 1.0 mM dithiothreitol, 0.1 mM sodium ortho-vanadate, 0.01% (v/v) Nonidet-P40 (Sigma)] were added and the mixture was incubated for 15 min at 22° C. to allow pre-binding of the test compounds to the enzyme before the start of the kinase reaction. Then the kinase reaction was started by the addition of 3 μl of a solution of adenosine-tri-phosphate (ATP, 3.3 mM=>final conc. in the 5 μl assay volume is 2 mM) and substrate (1.67 μM=>final conc. in the 5 μl assay volume is 1 μM) in assay buffer and the resulting mixture was incubated for a reaction time of 25 min at 22° C. The concentration of CDK9/CycT1 was adjusted depending of the activity of the enzyme lot and was chosen appropriate to have the assay in the linear range, typical concentrations were in the range of 0.5 μg/mL. The reaction was stopped by the addition of 5 μl of a solution of TR-FRET detection reagents (0.2 μM streptavidine-XL665 [Cisbio Bioassays, Codolet, France] and 1 nM anti-RB(pSer807/pSer811)-antibody from BD Pharmingen [#558389] and 1.2 nM LANCE EU-W1024 labeled anti-mouse IgG antibody [Perkin-Elmer, product no. AD0077]) in an aqueous EDTA-solution (100 mM EDTA, 0.2% (w/v) bovine serum albumin in 100 mM HEPES/NaOH pH 7.0).
as §1, with “HTRF” for “TR-FRET”

T2 sequence (P50750 whole entry): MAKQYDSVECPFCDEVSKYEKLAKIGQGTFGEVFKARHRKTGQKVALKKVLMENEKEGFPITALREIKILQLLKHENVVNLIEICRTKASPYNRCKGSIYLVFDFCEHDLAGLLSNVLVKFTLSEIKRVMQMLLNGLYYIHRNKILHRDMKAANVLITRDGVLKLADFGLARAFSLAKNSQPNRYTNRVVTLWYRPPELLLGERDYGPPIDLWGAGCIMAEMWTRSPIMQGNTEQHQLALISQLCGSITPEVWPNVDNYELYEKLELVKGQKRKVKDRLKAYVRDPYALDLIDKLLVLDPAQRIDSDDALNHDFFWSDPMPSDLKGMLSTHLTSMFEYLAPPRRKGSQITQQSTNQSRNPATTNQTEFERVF
T2 sequence (O60563 whole entry partner): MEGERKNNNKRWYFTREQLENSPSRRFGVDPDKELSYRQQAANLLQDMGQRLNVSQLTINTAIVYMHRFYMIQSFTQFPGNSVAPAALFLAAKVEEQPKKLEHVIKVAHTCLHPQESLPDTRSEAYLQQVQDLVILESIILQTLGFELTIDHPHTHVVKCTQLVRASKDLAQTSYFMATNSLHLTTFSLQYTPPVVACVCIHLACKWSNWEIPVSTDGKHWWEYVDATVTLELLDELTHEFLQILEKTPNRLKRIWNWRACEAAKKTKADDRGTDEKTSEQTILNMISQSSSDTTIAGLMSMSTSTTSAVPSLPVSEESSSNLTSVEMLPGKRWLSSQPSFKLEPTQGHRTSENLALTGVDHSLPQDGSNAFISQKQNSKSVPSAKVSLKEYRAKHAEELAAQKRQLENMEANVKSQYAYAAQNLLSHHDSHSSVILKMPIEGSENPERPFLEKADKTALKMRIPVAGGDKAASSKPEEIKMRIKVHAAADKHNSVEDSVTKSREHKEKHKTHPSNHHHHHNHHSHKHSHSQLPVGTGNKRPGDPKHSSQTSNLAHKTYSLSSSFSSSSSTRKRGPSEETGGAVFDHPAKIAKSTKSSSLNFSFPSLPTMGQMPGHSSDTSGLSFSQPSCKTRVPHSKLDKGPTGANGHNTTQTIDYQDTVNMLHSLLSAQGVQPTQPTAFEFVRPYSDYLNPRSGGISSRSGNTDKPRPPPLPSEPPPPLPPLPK

| Compound | IC50 [1] [nM] | IC50 [2] [nM] | Selectivity high ATP CDK9 over high ATP CDK2: IC50 (high ATP CDK2)/IC50 (high ATP CDK9) [2] |
| --- | --- | --- | --- |
| Cc1cc(CS(C)(=O)=NC#N)cc(Nc2ncc(F)c(-c3ccc(F)c4ccoc34)n2)c1 (single isomer, unassigned) [Example 14, [(3-{[5-Fluoro-4-(4-fluoro-1-benzofuran-7-yl)pyrimidin-2-yl]amino}-5-methylbenzyl)-(methyl)oxido-λ^6-sulfanylidene]cyanamide] | 65 | 2.2 | 385 |
| Cc1cc(CS(C)(=O)=NC#N)cc(Nc2ncc(F)c(-c3ccc(F)c4ccoc34)n2)c1 (single isomer, unassigned) [Example 15, [(3-{[5-Fluoro-4-(4-fluoro-1-benzofuran-7-yl)pyrimidin-2-yl]amino}-5-methylbenzyl)-(methyl)oxido-λ^6-sulfanylidene]cyanamide] | 95 | 1.6 | 522 |
| CS(=N)(=O)Cc1cccc(Nc2ncc(F)c(-c3ccc(F)c4ccoc34)n2)c1 (single isomer, unassigned) [Example 6, 5-Fluoro-4-(4-fluoro-1-benzofuran-7-yl)-N-{3-[(S-methylsulfonimidoyl)-methyl]-phenyl}-pyrimidin-2-amine] | 57 | 3.2 | 313 |
| Cc1cc(CS(C)(=O)=NC#N)cc(Nc2ncc(F)c(-c3ccc(F)c4ccoc34)n2)c1 (racemic) [Example 13, (rac)-[(3-{[5-Fluoro-4-(4-fluoro-1-benzofuran-7-yl)pyrimidin-2-yl]amino}-5-methylbenzyl)-(methyl)oxido-λ^6-sulfanylidene]cyanamide] | 41 | 0.88 | 1364 |
